Earlier results on four molecules are cited in patent US20070161683A1, “Certain chemical entities, compositions, and methods” (priority 2005, published 2007).

In this data set the test system is A549 cells. The conditions noted are these: concentration that decreases the rate of cell growth by fifty percent.
As usually defined, the GI50 is the concentration at which growth is held to half of that of the control. In the case of `CC(=O)O[C@H]1C(=O)[C@@]2(C)[C@H]([C@H](OC(=O)c3ccccc3)[C@]3(O)C[C@H](OC(=O)[C@H](O)[C@@H](NC(=O)c4ccccc4)c4ccccc4)C(C)=C1C3(C)C)[C@]1(OC(C)=O)CO[C@@H]1C[C@@H]2O` [paclitaxel], the GI50 was 0.004 µM.
For the molecule `NC(=O)NO` [hydroxyurea], the GI50 is 500 µM.
In the case of `O=c1[nH]cc(F)c(=O)[nH]1` [5-fluorouracil], the GI50 was 1 µM.
As for `COc1cccc2c1C(=O)c1c(O)c3c(c(O)c1C2=O)C[C@@](O)(C(=O)CO)C[C@@H]3O[C@H]1C[C@H](N)[C@H](O)[C@H](C)O1` [doxorubicin], the GI50 is 0.063 µM.
